Where a name gives a salt, the structure may show the parent alone.
What was measured:
[1] = Solubility assessment, 20 mg/ml solution; format: physicochemical; conditions: for pH of 20 mg/ml solution: pH test strips
Procedure: Solubility is an important property for therapeutic drug candidates. Poor solubility can lead to low bioavailability resulting in suboptimal drug delivery. It can also prevent the evaluation of test agents in animals because the concentration(s) needed to achieve the desired effect cannot be achieved to poor solubility. For solubility assessments, small molecules targeting RSK were compared. For these assessments, 100 mM solutions of the compounds dissolved in DMSO were diluted in DMEM growth media (Life Technologies) supplemented with fetal bovine serum (FBS, Life Technologies) and 100 units/ml penicillin and 100 units/ml streptomycin (Life Technologies) to make 20 mg/ml solutions. Once diluted, the solutions were vortexed and examined for the formation of precipitates. […] For Compound 26, a 100 mM solution of the compound dissolved in DMSO was diluted in phosphate buffered saline (Life Technologies) to make a 20 mg/ml solution. The stock of […] was chosen because this is the upper end of what would be required to dose mice for a range of studies including MTD, PK, PD and efficacy. The pH of this solution was determined to be 2, as previously described. […] At high concentrations some RSK inhibitors were highly soluble while others were not. Compound 0 is (R)—N-(1-benzyl-1H-pyrazol-4-yl)-9-methyl-6-oxo-6,7,8,9-tetrahydropyrido[3′,2′:4,5]pyrrolo[1,2-a]pyrazine-2-carboxamide. Compound 0 was not soluble, whereas Compounds 18, 20, 21, 25 and 26 were soluble under the same conditions (Table 5).

4T1 cells [2] = experiment: Monolayer growth inhibition, Alamar blue assay; format: cell-based; conditions: Mus musculus; 4T1 (TNBC), 5 days, single dose on day 1
Text: (§1) In all instances a single dose was given on day 1 of the experiment.

HCC1143 cells [3] = experiment: Monolayer growth inhibition, Alamar blue assay; format: cell-based; conditions: Homo sapiens; HCC1143 (TNBC), 5 days, single dose on day 1
Text: as §1

HCC1937 cells [4] = experiment: Monolayer growth inhibition, Alamar blue assay; format: cell-based; conditions: Homo sapiens; HCC1937 (TNBC, BRCA Mutant), 5 days, single dose on day 1
Text: as §1

JIMT-1 cells [5] = experiment: Monolayer growth inhibition, Alamar blue assay; format: cell-based; conditions: Homo sapiens; JIMT-1 (HER2), 5 days, single dose on day 1
Text: as §1

MDA-MB-231 cells [6] = experiment: Monolayer growth inhibition, Alamar blue assay; format: cell-based; conditions: Homo sapiens; MDA-MB-231 (TNBC), 5 days, single dose on day 1
Text: as §1

MDA-MB-435 cells [7] = experiment: Monolayer growth inhibition, Alamar blue assay; format: cell-based; conditions: Homo sapiens; MDA-MB-435 (Melanoma), 5 days, single dose on day 1
Text: as §1

MDA-MB-468 cells [8] = experiment: Monolayer growth inhibition, Alamar blue assay; format: cell-based; conditions: Homo sapiens; MDA-MB-468 (TNBC), 5 days, single dose on day 1
Text: as §1

PC3 cells [9] = experiment: Monolayer growth inhibition, Alamar blue assay; format: cell-based; conditions: Homo sapiens, PC-3; PC3 (Prostate), 5 days, single dose on day 1
Text: as §1

SUM149 cells [10] = experiment: Monolayer growth inhibition, Alamar blue assay; format: cell-based; conditions: Homo sapiens; SUM149 (TNBC, BRCA Mutant), 5 days, single dose on day 1
Text: as §1

SUM149-PTXR cells [11] = experiment: Monolayer growth inhibition, Alamar blue assay; format: cell-based, Human; conditions: Homo sapiens; SUM149-PTXR (TNBC, BRCA Mutant), 5 days, single dose on day 1
Text: as §1

T47D cells [12] = experiment: Monolayer growth inhibition, Alamar blue assay; format: cell-based, Human; conditions: Homo sapiens; T47D (ER/PR), 5 days, single dose on day 1
Text: as §1

All cell lines [13] = experiment: Monolayer growth inhibition, Alamar blue assay, range over all cell lines; format: cell-based; conditions: 120 h; range of IC50 over all cell lines of the table; read-out: IC50 Values - Alamar Blue (5 Days), Range, All
Text: as §1

HCC1937 cells [14] = experiment: Monolayer growth inhibition, crystal violet assay; format: cell-based; conditions: Homo sapiens; HCC1937 (TNBC, BRCA Mutant), 5 days, single dose on day 1
Text: (§2) In all instances a single dose was given on day 1 of the experiment. […] Complete (100%) growth suppression was achievable with several of the compounds in multiple different cell lines.

JIMT-1 cells [15] = experiment: Monolayer growth inhibition, crystal violet assay; format: cell-based; conditions: Homo sapiens; JIMT-1 (HER2), 5 days, single dose on day 1
Text: as §2

MDA-MB-468 cells [16] = experiment: Monolayer growth inhibition, crystal violet assay; format: cell-based; conditions: Homo sapiens; MDA-MB-468 (TNBC), 5 days, single dose on day 1
Text: as §2

T47D cells [17] = experiment: Monolayer growth inhibition, crystal violet assay; format: cell-based; conditions: Homo sapiens; T47D (ER/PR), 5 days, single dose on day 1
Text: as §2

4T1 cells [18] = experiment: Monolayer growth inhibition, crystal violet assay; format: cell-based; conditions: Mus musculus; 4T1 (TNBC), 5 days, single dose on day 1
Text: as §1

HCC1143 cells [19] = experiment: Monolayer growth inhibition, crystal violet assay; format: cell-based; conditions: Homo sapiens; HCC1143 (TNBC), 5 days, single dose on day 1
Text: as §1

MDA-MB-231 cells [20] = experiment: Monolayer growth inhibition, crystal violet assay; format: cell-based; conditions: Homo sapiens; MDA-MB-231 (TNBC), 5 days, single dose on day 1
Text: as §1

MDA-MB-435 cells [21] = experiment: Monolayer growth inhibition, crystal violet assay; format: cell-based; conditions: Homo sapiens; MDA-MB-435 (Melanoma), 5 days, single dose on day 1
Text: as §1

PC3 cells [22] = experiment: Monolayer growth inhibition, crystal violet assay; format: cell-based; conditions: Homo sapiens, PC-3; PC3 (Prostate), 5 days, single dose on day 1
Text: as §1

SUM149 cells [23] = experiment: Monolayer growth inhibition, crystal violet assay; format: cell-based; conditions: Homo sapiens; SUM149 (TNBC, BRCA Mutant), 5 days, single dose on day 1
Text: as §1

SUM149-PTXR cells [24] = experiment: Monolayer growth inhibition, crystal violet assay; format: cell-based; conditions: Homo sapiens; SUM149-PTXR (TNBC, BRCA Mutant), 5 days, single dose on day 1
Text: as §1

All cell lines [25] = experiment: Monolayer growth inhibition, crystal violet assay, range over all cell lines; format: cell-based; conditions: 120 h; range of IC50 over all cell lines of the table; read-out: IC50 Values - Crystal Violet (5 Days), Range, All
Text: as §2

MDA-MB-231 cells [26] = experiment: Soft agar growth inhibition assay; format: cell-based; conditions: Homo sapiens; MDA-MB-231 (TNBC), 14-22 days; read-out: IC50 Values - Soft Agar (14-22 Days)
MDA-MB-468 cells [27] = experiment: Soft agar growth inhibition assay; format: cell-based, Human; conditions: Homo sapiens; MDA-MB-468 (TNBC), 14-22 days
4T1 cells [28] = experiment: Soft agar growth inhibition assay; format: cell-based; conditions: Mus musculus; 4T1 (TNBC), 14-22 days; read-out: IC50 Values - Soft Agar (14-22 Days)
Procedure: Two agar (Alfa Aesar) solutions (0.8% w/v and 0.4% w/v) were prepared in ultrapure water. The 0.8% agar solution was mixed in equal volumes with 2× media previously prepared from powder (Life Technologies) following the manufacturer's instructions and filter sterilized. The 0.8% agar and media solution was added to 24 well plates (Mandel Scientific) at 500 μl per well. The plates were placed in a humidified incubator at 37° C. with 5% CO2. Next, the 0.4% agar solution was mixed in equal volumes with 2× media. Breast cancer cell lines were added to this solution to achieve a final concentration of 2×10^4 cells per well and […] was added to each well on top of the bottom agar and media layer. […] The plates were returned to the incubator for 10-32 days, with a re-dosing of compounds or DMSO every 7 days. After 10-32 days, colonies were counted in 3 different fields of view for each well.
Representative compounds described herein were tested in the soft agar growth inhibition assay against the 4T1 breast cancer cell line.

[29] = tested on: phosphorylated Y-box binding protein-1 (YB-1) at serine 102 (P-YB-1S102); experiment: Immunoblotting of cell signalling, loss of P-YB-1 in MDA-MB-231 cells; conditions: Homo sapiens, MDA-MB-231, read-out: IC50 values for P-YB-1
[30] = 100 mM in DMSO diluted in DMEM growth media to 20 mg/ml

Compound	IC50 (4T1 cells [2]) [µM]	IC50 (HCC1143 cells [3]) [µM]	IC50 (HCC1937 cells [4]) [µM]	IC50 (JIMT-1 cells [5]) [µM]	IC50 (MDA-MB-231 cells [6]) [µM]	IC50 (MDA-MB-435 cells [7]) [µM]	IC50 (MDA-MB-468 cells [8]) [µM]	IC50 (PC3 cells [9]) [µM]	IC50 (SUM149 cells [10]) [µM]	IC50 (SUM149-PTXR cells [11]) [µM]	IC50 (All cell lines [13]) [µM]	IC50 (HCC1937 cells [14]) [µM]	IC50 (JIMT-1 cells [15]) [µM]	IC50 (MDA-MB-468 cells [16]) [µM]	IC50 (4T1 cells [18]) [µM]	IC50 (HCC1143 cells [19]) [µM]	IC50 (MDA-MB-231 cells [20]) [µM]	IC50 (MDA-MB-435 cells [21]) [µM]	IC50 (PC3 cells [22]) [µM]	IC50 (SUM149 cells [23]) [µM]	other results
C[C@@H]1CNC(=O)c2cc3ccc(C(=O)Nc4cnn(Cc5ccc(C(F)(F)F)cc5)c4)nc3n21 [Compound 22, (R)-9-methyl-6-oxo-N-(1-(4-(trifluoromethyl)benzyl)-1H-pyrazol-4-yl)-6,7,8,9-tetrahydropyrido[3′,2′:4,5]pyrrolo[1,2-a]pyrazine-2-carboxamide]	4.5 ± 1	9.9 ± 1	12.6 ± 3.5	17.1 ± 2.4	13.9 ± 3.5	6.8 ± 6.4	7.5 ± 2.1	9.2 ± 1.5	7.7 ± 4.6	7.8 ± 4.6	4.5 to 17.1	9.9 ± 3	14.2 ± 5.1	6.6 ± 2.3	2.6 ± 1.5	6.6 ± 3.1	6.6 ± 2.1	3.2 ± 1.3	6.8 ± 1.8	6.2 ± 4.8	Solubility, 20 mg/ml Solution [1, 30]: Precipitate; IC50 (T47D cells [12]): 4.8 ± 0.9 µM; IC50 (T47D cells [17]): 4.3 ± 2.1 µM; IC50 (SUM149-PTXR cells [24]): 8 ± 1.3 µM; IC50 (All cell lines [25]): 2.6 to 14.2 µM; IC50 (MDA-MB-231 cells [26]): 0.2 ± 0.1 µM; IC50 (MDA-MB-468 cells [27]): 6.9 ± 1.7 µM; IC50 (4T1 cells [28]): 3.8 ± 1.9 µM; IC50 [29]: 0.024 µM
C[C@@H]1CNC(=O)c2cc3ccc(C(=O)Nc4ccccc4C(N)=O)nc3n21 [Compound 21, (R)—N-(2-carbamoylphenyl)-9-methyl-6-oxo-6,7,8,9-tetrahydropyrido[3′,2′:4,5]pyrrolo[1,2-a]pyrazine-2-carboxamide]	1.2 ± 0.3	5.4 ± 3.7	8.3 ± 2.4	12.6 ± 6.4	14.7 ± 4.3	8.3 ± 5.3	6.5 ± 4.5	7.1 ± 0.9	2.7 ± 1.3	1.5 ± 0.8	1.2 to 14.7	11 ± 1	11.3 ± 4.1	4.6 ± 1.4	1.1 ± 0.7	9.5 ± 5.6	9.1 ± 0.8	4.8 ± 2.1	4.3 ± 0.5	2.4 ± 1.3	Solubility, 20 mg/ml Solution [1, 30]: Soluble; pH of 20 mg/ml solution ([1]; DMSO stock diluted in DMEM): 9; IC50 (T47D cells [12]): 8 ± 3.8 µM; IC50 (T47D cells [17]): 3.7 ± 2.7 µM; IC50 (SUM149-PTXR cells [24]): 2 ± 0.2 µM; IC50 (All cell lines [25]): 1.1 to 11.3 µM; IC50 (MDA-MB-231 cells [26]): 2 ± 1 µM; IC50 (MDA-MB-468 cells [27]): 0.4 ± 0.1 µM; IC50 (4T1 cells [28]): 3.1 ± 0.6 µM
C[C@@H]1CNC(=O)c2cc3ccc(C(=O)Nc4cnn(Cc5ccc(CN)cc5)c4)nc3n21 [Compound 26, (R)—N-(1-(4-(aminomethyl)benzyl)-1H-pyrazol-4-yl)-9-methyl-6-oxo-6,7,8,9-tetrahydropyrido[3′,2′:4,5]pyrrolo[1,2-a]pyrazine-2-carboxamide hydrochloride salt]	6.2 ± 2.5	9.6 ± 6.1	5.6 ± 0.4	15.5 ± 6.6	7.4 ± 1.7	3.9 ± 1.3	2.5 ± 0.7	1.9 ± 0.8	9.8 ± 5.7	8.8 ± 2.5	1.9 to 15.5	6.6 ± 1.6	12.3 ± 3.2	1.7 ± 0.2	4.9 ± 1.1	7.3 ± 2.7	3.7 ± 1.8	1.6 ± 0.3	1.5 ± 0.5	6.5 ± 4.4	Solubility after addition of 4M NaOH ([1]; 20 mg/ml in PBS, pH equal to 9): remained in solution; Solubility, 20 mg/ml Solution ([1]; 100 mM in DMSO diluted in PBS to 20 mg/ml, hydrochloride salt): Soluble; pH of 20 mg/ml solution ([1]; DMSO stock diluted in PBS, hydrochloride salt): 2-9; IC50 (SUM149-PTXR cells [24]): 6.5 ± 2.1 µM; IC50 (All cell lines [25]): 1.5 to 12.3 µM; IC50 (MDA-MB-231 cells [26]): 0.2 ± 0.1 µM; IC50 (MDA-MB-468 cells [27]): 2 ± 0.2 µM; IC50 (4T1 cells [28]): 5.3 ± 1.3 µM; IC50 [29]: 0.047 µM

From US10081632B2, “Substituted tetrahydropyrido[3′,2′:4,5]pyrrolo[1,2-α]pyrazine-2-carboxamides as RSK inhibitors” (Phoenix Molecular Designs, priority 2016, dated 2018)
